Drawing on PMC10073473, “Integrative omics-analysis of lipid metabolism regulation by peroxisome proliferator-activated receptor a and b agonists in male Atlantic cod” (Frontiers in Physiology, 2023), this text covers EC50 for 1 molecule.

The target of the experiment is T1, Pparb (gmPparb) (Gadus morhua, UniProt A0A8C4ZA29).
T1 construct: gene PPARD
T1 sequence (A0A8C4ZA29 216-511 limits assumed): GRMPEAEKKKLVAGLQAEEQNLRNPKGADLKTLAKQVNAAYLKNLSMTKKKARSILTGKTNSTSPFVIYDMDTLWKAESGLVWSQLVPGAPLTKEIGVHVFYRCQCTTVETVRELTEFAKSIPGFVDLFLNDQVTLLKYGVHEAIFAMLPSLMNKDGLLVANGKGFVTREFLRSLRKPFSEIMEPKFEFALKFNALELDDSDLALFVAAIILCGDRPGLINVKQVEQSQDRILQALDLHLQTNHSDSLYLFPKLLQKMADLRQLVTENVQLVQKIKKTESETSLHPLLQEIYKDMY
The experiment in a line: GAL4-LBD luciferase reporter gene assay in COS-7 cells. The format is cell-based.

By EC50 is commonly meant the concentration at which the effect is half-maximal. Lower therefore signals greater potency. As for `Cc1cc(SCc2sc(-c3ccc(C(F)(F)F)cc3)nc2C)ccc1OCC(=O)O` [GW501516, 2-[2-Methyl-4-[[[4-methyl-2-[4-(trifluoromethyl)phenyl]-5-thiazolyl]methyl]thio]phenoxy]-acetic acid], the EC50 is 5.9 µM.
